Several values for one entry are separate records, joined by “and”; a condition that tells them apart may be missing. Equal entries are not always repeated. Inconclusive results and toxic doses are left out.
Test system: L1210 leukemia ip in BDF1 mice, survival T/C
Test: NCI In Vivo Anticancer Drug Screen. Data for tumor model L1210 Leukemia (intraperitoneal) in B6D2F1 (BDF1) mice
Conditions: endpoint: mean survival time, higher = longer survival
Summary of the method: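 Antitumor effect is assessed in tumor-bearing animals. Survival in the compound arm is compared with a vehicle-dosed control arm and expressed as their quotient.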

[1] = dose: 25.0 mg/kg/injection, schedule: Q04DX002 (ip), vehicle: Klucel (hydroxypropylcellulose) (HPC)
[2] = dose: 50.0 mg/kg/injection, schedule: Q04DX002 (ip), vehicle: Klucel (hydroxypropylcellulose) (HPC)
[3] = dose: 100.0 mg/kg/injection, schedule: Q04DX002 (ip), vehicle: Klucel (hydroxypropylcellulose) (HPC)
[4] = dose: 100.0 mg/kg/injection, schedule: Q04DX003 (ip), vehicle: saline with Tween-80
[5] = dose: 200.0 mg/kg/injection, schedule: Q04DX003 (ip), vehicle: saline with Tween-80
[6] = dose: 400.0 mg/kg/injection, schedule: Q04DX003 (ip), vehicle: saline with Tween-80
[7] = dose: 100.0 mg/kg/injection, schedule: Q04DX003 (ip), vehicle: Klucel (hydroxypropylcellulose) (HPC)
[8] = dose: 200.0 mg/kg/injection, schedule: Q04DX003 (ip), vehicle: Klucel (hydroxypropylcellulose) (HPC)
[9] = dose: 400.0 mg/kg/injection, schedule: Q04DX003 (ip), vehicle: Klucel (hydroxypropylcellulose) (HPC)
[10] = dose: 100.0 mg/kg/injection, schedule: Q01DX001 (ip), vehicle: saline
[11] = dose: 200.0 mg/kg/injection, schedule: Q01DX001 (ip), vehicle: saline
[12] = dose: 400.0 mg/kg/injection, schedule: Q01DX001 (ip), vehicle: saline
[13] = dose: 100.0 mg/kg/injection, schedule: Q01DX009 (ip), vehicle: Klucel (hydroxypropylcellulose) (HPC)
[14] = dose: 200.0 mg/kg/injection, schedule: Q04DX002 (ip), vehicle: Klucel (hydroxypropylcellulose) (HPC)
[15] = dose: 400.0 mg/kg/injection, schedule: Q04DX002 (ip), vehicle: Klucel (hydroxypropylcellulose) (HPC)

With `O=C1C2C3CCC(O3)C2C(=O)N1C(=O)N1C(=O)C2C3CCC(O3)C2C1=O` (stereo not drawn) the T/C [1] was 101 % of control, the T/C [2] was 94 % of control and the T/C [3] was 111 % of control and 89 % of control.

With `CCCCCCCCCCCCCCCC[N+]1(C)CCS(C)(OS(=O)(=O)OC)CC1` (stereo not drawn) the T/C (dose: 6.25 mg/kg/injection, schedule: Q01DX001 (ip), vehicle: saline) was 95 % of control, the T/C (dose: 12.5 mg/kg/injection, schedule: Q01DX001 (ip), vehicle: saline) was 88 % of control and the T/C (dose: 25.0 mg/kg/injection, schedule: Q01DX001 (ip), vehicle: saline) was 88 % of control.

With `CC(=O)c1ccc(OCC(O)CN2CCN(c3ccccc3)CC2)c(C)c1` (stereo not drawn) the T/C [4] was 108 % of control, the T/C [5] was 108 % of control and the T/C [6] was 101 % of control.

In the case of `O=c1c(N=Nc2ccc(Br)cc2)c(O)n(-c2ccc(I)cc2)c(=S)n1-c1ccccc1`, the T/C (dose: 50.0 mg/kg/injection, schedule: Q01DX001 (ip), vehicle: Klucel (hydroxypropylcellulose) (HPC)) is reported as 97 % of control, the T/C (dose: 100.0 mg/kg/injection, schedule: Q01DX001 (ip), vehicle: Klucel (hydroxypropylcellulose) (HPC)) is reported as 108 % of control and the T/C (dose: 200.0 mg/kg/injection, schedule: Q01DX001 (ip), vehicle: Klucel (hydroxypropylcellulose) (HPC)) is reported as 121 % of control.

With `O=C(NC1CC2c3ccccc3C1c1ccccc12)NC1CC2c3ccccc3C1c1ccccc12` (stereo not drawn) the T/C [7] was 94 % of control, the T/C [8] was 89 % of control and the T/C [9] was 98 % of control.

With `O=C1c2cc(Br)ccc2-c2cc(Br)c([N+](=O)[O-])c(Br)c21` the T/C (dose: 100.0 mg/kg/injection, schedule: Q01DX001 (ip), vehicle: carboxymethylcellulose (CMC)) was 106 % of control, the T/C (dose: 200.0 mg/kg/injection, schedule: Q01DX001 (ip), vehicle: carboxymethylcellulose (CMC)) was 103 % of control and the T/C (dose: 400.0 mg/kg/injection, schedule: Q01DX001 (ip), vehicle: carboxymethylcellulose (CMC)) was 97 % of control.

In the case of `COC1CCC(OC)(C(=O)NN)O1` (stereo not drawn), the T/C [10] is reported as 95 % of control, the T/C [11] is reported as 95 % of control and the T/C [12] is reported as 102 % of control.

For `COc1ccccc1CCCO`, the T/C (dose: 50.0 mg/kg/injection, schedule: Q01DX001 (ip), vehicle: saline) was 97 % of control, the T/C [10] was 105 % of control and the T/C [11] was 100 % of control. The T/C [12] was 105 % of control.

For `O=C1C=CC(=O)N1CCc1ccccc1`, the T/C (dose: 3.0 mg/kg/injection, schedule: Q01DX009 (ip), vehicle: Klucel (hydroxypropylcellulose) (HPC)) was 106 % of control, the T/C (dose: 5.0 mg/kg/injection, schedule: Q01DX009 (ip), vehicle: saline with Tween-80) was 91 % of control and the T/C (dose: 6.0 mg/kg/injection, schedule: Q01DX009 (ip), vehicle: Klucel (hydroxypropylcellulose) (HPC)) was 95 % of control. The T/C (dose: 10.0 mg/kg/injection, schedule: Q01DX009 (ip), vehicle: saline with Tween-80) was 87 % of control, the T/C (dose: 12.0 mg/kg/injection, schedule: Q01DX009 (ip), vehicle: Klucel (hydroxypropylcellulose) (HPC)) was 103 % of control and the T/C (dose: 12.5 mg/kg/injection, schedule: Q01DX009 (ip), vehicle: Klucel (hydroxypropylcellulose) (HPC)) was 97 % of control. The T/C (dose: 20.0 mg/kg/injection, schedule: Q01DX009 (ip), vehicle: saline with Tween-80) was 101 % of control and the T/C (dose: 20.0 mg/kg/injection, schedule: Q04DX003 (ip), vehicle: saline with Tween-80) was 95 % of control.

For `CCCC(NC(=O)C(C)N)C(=O)O` (stereo not drawn), the T/C (dose: 12.5 mg/kg/injection, schedule: Q04DX002 (ip), vehicle: saline) was 105 % of control, the T/C (dose: 25.0 mg/kg/injection, schedule: Q04DX002 (ip), vehicle: saline) was 102 % of control and the T/C (dose: 50.0 mg/kg/injection, schedule: Q04DX002 (ip), vehicle: saline) was 102 % of control.

`Cc1ccc(Nc2nc(N)nc(CNc3ccc(Cl)cc3)n2)cc1` was tested, and the T/C [4] was 89 % of control, the T/C [5] was 97 % of control and the T/C [6] was 89 % of control.

`CN(C)C1CCCC(OC(=O)c2ccccc2)C1` (stereo not drawn) was tested, and the T/C (dose: 100.0 mg/kg/injection, schedule: Q04DX003 (ip), vehicle: saline sonified) was 98 % of control.

For `O=C1c2ccccc2C(O)N1c1ccccc1` (stereo not drawn), the T/C [10] was 86 % of control and the T/C [12] was 104 % of control.

For `Cc1cccc(C)c1NC(=O)Nc1cccc(O)c1`, the T/C [13] was 101 % of control, the T/C (dose: 200.0 mg/kg/injection, schedule: Q01DX009 (ip), vehicle: Klucel (hydroxypropylcellulose) (HPC)) was 108 % of control and the T/C (dose: 400.0 mg/kg/injection, schedule: Q01DX009 (ip), vehicle: Klucel (hydroxypropylcellulose) (HPC)) was 103 % of control.

In the case of `CSc1ncnc2c1ncn2CO`, the T/C (dose: 30.0 mg/kg/injection, schedule: Q01DX009 (ip), vehicle: Klucel (hydroxypropylcellulose) (HPC)) is reported as 113 % of control, the T/C (dose: 46.0 mg/kg/injection, schedule: Q01DX009 (ip), vehicle: carboxymethylcellulose (CMC)) is reported as 122 % of control and the T/C (dose: 55.0 mg/kg/injection, schedule: Q01DX009 (ip), vehicle: saline) is reported as 119 % of control. For the same compound, the T/C (dose: 60.0 mg/kg/injection, schedule: Q01DX009 (ip), vehicle: Klucel (hydroxypropylcellulose) (HPC)) was 116 % of control, the T/C (dose: 110.0 mg/kg/injection, schedule: Q01DX001 (ip), vehicle: saline) was 115 % of control and the T/C (dose: 120.0 mg/kg/injection, schedule: Q01DX009 (ip), vehicle: Klucel (hydroxypropylcellulose) (HPC)) was 109 % of control. For the same compound, the T/C (dose: 125.0 mg/kg/injection, schedule: Q01DX009 (ip), vehicle: saline) was 164 % of control, the T/C (dose: 165.0 mg/kg/injection, schedule: Q01DX001 (ip), vehicle: saline) was 120 % of control and the T/C (dose: 250.0 mg/kg/injection, schedule: Q01DX001 (ip), vehicle: saline) was 120 % of control.

With `CC(=O)NC(C)CCC(C)C` (stereo not drawn) the T/C [7] was 101 % of control, the T/C [8] was 100 % of control and the T/C [9] was 101 % of control.

With `CCCCCCCCCCCCCCCCCCNC(=O)N1CCC(C)CC1` the T/C [3] was 97 % of control, the T/C [14] was 100 % of control and the T/C [15] was 97 % of control.

With `COC(=O)C(CCCN=C(N)N)NC(=O)OCc1ccccc1` (stereo not drawn) the T/C (dose: 100.0 mg/kg/injection, schedule: Q04DX003 (ip), vehicle: saline) was 105 % of control, the T/C (dose: 200.0 mg/kg/injection, schedule: Q04DX003 (ip), vehicle: saline) was 110 % of control and the T/C (dose: 400.0 mg/kg/injection, schedule: Q04DX003 (ip), vehicle: saline) was 108 % of control.

With `Cc1ncc(C(=O)O)[nH]1` the T/C [10] was 91 % of control, the T/C [11] was 89 % of control and the T/C [12] was 91 % of control.

For `COc1cc2c(cc1OC)-c1c(=O)c3cc(OC)c(OC)cc3n([O-])[n+]1CC2`, the T/C [10] was 93 % of control, the T/C [11] was 94 % of control and the T/C [12] was 89 % of control.

With `CN1C(=O)CSC1=S` the T/C (dose: 25.0 mg/kg/injection, schedule: Q01DX009 (ip), vehicle: Klucel (hydroxypropylcellulose) (HPC)) was 90 % of control, the T/C (dose: 50.0 mg/kg/injection, schedule: Q01DX009 (ip), vehicle: Klucel (hydroxypropylcellulose) (HPC)) was 87 % of control and the T/C [13] was 93 % of control.

In the case of `c1cc[c]([Ge]([CH2][CH2][Sn]([c]2ccccc2)([c]2ccccc2)[c]2ccccc2)([c]2ccccc2)[c]2ccccc2)cc1`, the T/C (dose: 100.0 mg/kg/injection, schedule: Q04DX002 (ip), vehicle: saline with Tween-80) is reported as 102 % of control, the T/C (dose: 200.0 mg/kg/injection, schedule: Q04DX002 (ip), vehicle: saline with Tween-80) is reported as 98 % of control and the T/C (dose: 400.0 mg/kg/injection, schedule: Q04DX002 (ip), vehicle: saline with Tween-80) is reported as 98 % of control.

In the case of `C(=N\Nc1ccc2ccccc2n1)/c1ccccn1`, the T/C (dose: 9.5 mg/kg/injection, schedule: Q01DX001 (ip), vehicle: other) is reported as 94 % of control, the T/C (dose: 19.0 mg/kg/injection, schedule: Q01DX001 (ip), vehicle: other) is reported as 103 % of control and the T/C (dose: 38.0 mg/kg/injection, schedule: Q01DX001 (ip), vehicle: other) is reported as 94 % of control. For the same compound, the T/C (dose: 75.0 mg/kg/injection, schedule: Q01DX001 (ip), vehicle: other) was 108 % of control.

`CC(=O)OC1CCCCC1NC(=O)NCCCl` (stereo not drawn) was tested, and the T/C (dose: 12.5 mg/kg/injection, schedule: Q04DX002 (ip), vehicle: Klucel (hydroxypropylcellulose) (HPC)) was 87 % of control, the T/C [1] was 93 % of control and the T/C [2] was 101 % of control. The T/C [3] was 91 % of control, the T/C [14] was 103 % of control and the T/C [15] was 106 % of control and 95 % of control.

`CCOC(=O)/C=C/Sc1ccccc1` was tested, and the T/C (dose: 12.5 mg/kg/injection, schedule: Q04DX002 (ip), vehicle: saline with Tween-80) was 98 % of control, the T/C (dose: 25.0 mg/kg/injection, schedule: Q04DX002 (ip), vehicle: saline with Tween-80) was 98 % of control and the T/C (dose: 50.0 mg/kg/injection, schedule: Q04DX002 (ip), vehicle: saline with Tween-80) was 91 % of control.

From PubChem BioAssay AID248 (DTP/NCI, 2004)
